From patent US11033518B2, “Pharmaceutical composition containing niclosamide for treating axin-GSK3 interaction-related diseases” (BAOBAB PHARM CO., LTD., priority 2017, dated 2021)

Columns and labels:
[1] = target: T1, recombinant GSK3 beta - Axin peptide interaction (Homo sapiens, UniProt P49841); experiment: Competitive binding of FITC-linked 19-mer Axin peptide to recombinant GSK3 (fluorometry); conditions: 2 hours, Ni-Ti beads
T1 construct: made in house; host or cells: Sf9 insect cells (GSK3 beta); The peptide was synthesized by Peptron
T1 sequence (P49841 whole entry): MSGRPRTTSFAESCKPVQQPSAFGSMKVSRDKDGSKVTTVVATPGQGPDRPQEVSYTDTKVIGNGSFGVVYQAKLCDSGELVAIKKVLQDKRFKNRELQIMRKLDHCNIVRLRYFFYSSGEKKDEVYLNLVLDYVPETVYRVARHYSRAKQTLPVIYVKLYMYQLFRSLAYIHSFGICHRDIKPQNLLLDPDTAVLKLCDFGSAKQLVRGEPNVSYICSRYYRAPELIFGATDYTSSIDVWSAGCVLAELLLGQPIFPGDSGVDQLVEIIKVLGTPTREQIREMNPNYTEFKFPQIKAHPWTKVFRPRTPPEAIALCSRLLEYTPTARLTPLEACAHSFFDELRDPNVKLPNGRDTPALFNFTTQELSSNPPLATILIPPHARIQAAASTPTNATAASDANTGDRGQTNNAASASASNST
Text: Since it was disclosed that the hydrophobic residues of alpha helix of Axin were accumulated to the hydrophobic groove formed by the C-terminal loop of GSK3, in the result of structural analysis of Axin-GSK3 binding announced in the past (Dajani R et al., EMBO J. 22:494-501, 2003), the present inventors hypothesized that niclosamide binds to the hydrophobic groove of GSK3 and interferes with the function of Axin, and in order to confirm it, they designed in vitro analysis to confirm competitive inhibition by niclosamide of recombinant GSK3 which binds to a 19-mer FITC-linked Axin peptide.
His-tagged recombinant GSK3 beta was obtained from sf9 insect cells by the known method (Lee D G, et al. Nat Commun. 5:4423, 2014). The FITC-linked 19-mer Axin peptide known to bind to GSK3 as amphipathic alpha-helix (Axin1, 383-401, VEPQKFAEELIHRLEAVQR) was chemically synthesized (Peptron). In order to confirm competitive binding of the synthesized Axin peptide and niclosamide, His-tagged recombinant GSK3 and […] were treated with niclosamide for 2 hours, and were washed with PBS 3 times and then quantitative fluorometry was performed using […]. The fluorescence strength was shown in proportion to the fluorescence strength obtained in the negative control group from 3 times of experiments.

Snail, E-cadherin = experiment: Snail western blot and E-cadherin dual luciferase assay in colorectal cancer cells; assay type: cell-based; conditions: as concentration increased
Text: In order to confirm whether niclosamide induced snail-mediated EMT recovery, beta-catenin (β-catenin) expression and TCF/LEF reporter (Topflash) activity change, and Snail and E-cadherin protein expression were confirmed.
Through the western blot, Snail expression change was confirmed, and through the dual luciferase assay system, the expression of E-cadherin protein was confirmed.

HCT116 and SW480 cells = experiment: Tumor growth of HCT116 and SW480 cells injected into nude mice; assay type: in vivo; conditions: intraperitoneal administration daily
Experimental: Next, the effect of niclosamide having tumor formation potential in vivo experiment of HCT116 and SW480 cells was investigated.
Colorectal cancer cell lines HCT116 (5×10^6 cells) and SW480 (5×10^6 cells) were mixed in 100 μl PBS and were injected into flank subcutaneous tissues in female athymic nude mice (6 weeks old). Mice were randomly assigned to two groups and a vehicle and niclosamide were intraperitoneally injected daily and they were treated for […]. Niclosamide was dissolved with 10% Cremophor EL (BASF) and 0.9% NaCl and then was intraperitoneally injected. After injection of colorectal cancer cells, mice were observed daily and the weight change was measured twice a week. In addition, when a tumor was observed, it was measured with calipers. The tumor size was calculated by the equation (LXW2)/2. Herein, L is a long diameter of the tumor and W is a short diameter.

[2] = target: Helicobacter pylori CagA - GSK3 binding (Homo sapiens, UniProt P49841); experiment: Immunoprecipitation of CagA and GSK3; conditions: various amounts
Sequence of Helicobacter pylori CagA - GSK3 binding (P49841 whole entry): as above
Text: In view of the results of Examples 2˜5 that niclosamide inhibited Wnt activity and EMT through Axin-GSK3 inhibition, and that CagA of Helicobacter (Helicobacter pylori) bound to GSK-3 similarly to Axin, the effect of GSK-3 binding and Snail induction by CagA of Helicobacter pylori by niclosamide was confirmed. It was confirmed that binding of CagA and GSK3 was inhibited by niclosamide similarly to Axin 2, when examining with immunoprecipitation after adding various amounts of niclosamide to this sample (FIG. 10A). In addition, it could be seen that Snail expression by CagA was inhibited when treating niclosamide after inducing CagA and Snail expression in the 293 cell (FIG. 10B). Through such a result, it could be seen that niclosamide inhibited the function of CagA performing function similar to Axin and thereby inhibited gastric cancer occurrence and inflammation by Helicobacter.

[3] = system: GSK3, β-catenin and Snail; experiment: Immunoblotting of nucleo-cytoplasm fractions of colorectal cancer cells; assay type: cell-based; conditions: 0.25 nM, 24 hours, HCT116, SW480 and DLD-1
Experimental: After treating niclosamide of 0.25 nM to colorectal cancer cell lines HCT116, SW480 and DLD-1 cells for 24 hours, the amount of GSK3, β-catenin and Snail of nucleo-cytoplasm fractions was analyzed by immunoblotting.
The amount of Snail and GSK3 protein in cells was confirmed by separating nuclei and cytoplasm in the hypotonic solution (Kim N H, et al., Sci Signal. 4:ra71, 2011; Yook J I, et al. Nat Cell Biol., 8:[…], 2006). Briefly, after collecting colorectal cancer cells (1×10^6 cells) in a centrifugation tube, they were washed with PBS and were treated with the hypotonic solution (10 mM HEPES, pH7.9; 10 mM KCl; 1 mM DTT with protease inhibitors) 400 μl on ice for 5 minutes. The cell membrane was degraded by addition of 10% NP-40, and the final concentration was adjusted to 0.6% final concentration, and then was mixed well and high-speed centrifugation was conducted for 30 seconds. The cytoplasmic resolvents were separated and nuclear precipitates were washed with cold PBS twice. The nucleoprotein was extracted by treating hypertonic buffer (20 mM HEPES, pH7.9; 0.4 M NaCl; 1 mM DTT with protease inhibitors) on ice for 15 minutes, and then high-speed centrifugation was conducted, and the amount of GSK3, β-catenin and Snail of nucleo-cytoplasm fractions was analyzed by immunoblotting.

[4] = system: TCF/LEF transcriptional activity; experiment: TCF/LEF reporter (Topflash) dual luciferase assay in colorectal cancer cells; assay type: cell-based; conditions: 0, 0.125, 0.25, 0.5 nM; as concentration increased
Experimental: At first, after treating niclosamide of nM units at concentrations of 0 nM, 0.125 nM, 0.25 nM and 0.5 nM to colorectal cancer cells for 24 hours, the beta-catenin (β-catenin) activity and TCF/LEF reporter (Topflash) activity of colorectal cancer cells were measured.
The TCF/LEF transcriptional activity was carried out by transformation with 100 ng of a reporter gene and 1 ng of transfection control pRL-SV40-Renilla. The reporter activity was measured with a dual luciferase assay system (Promega) in 48 hours after infection, and was standardized by measuring the co-transformed renilla activity, and the reporter gene activity was represented by light units in proportion to light units obtained from the negative control group.

## O=C(Nc1ccc([N+](=O)[O-])cc1Cl)c1cc(Cl)ccc1O [niclosamide]
[1]
  interaction between recombinant GSK3 and synthesized Axin peptide: inhibited in proportion to the administration concentration
Snail, E-cadherin; dual luciferase assay
  E-cadherin (promoter activity): increased
Snail, E-cadherin; western blot
  expression of Snail: reduced
HCT116 and SW480 cells
  tumor growth of colorectal cancer cells: significantly inhibited
[2]
  binding of CagA and GSK3: inhibited
[3]
  GSK3 of nuclei: increased
  amount of Snail: reduced
  amount of beta-catenin: reduced
[4]
  TCF/LEF transcriptional activity: reduced
